From patent US20220274983A1, “JAK KINASE INHIBITOR AND USE THEREOF” (JIANGSU CAREPHAR PHARMACEUTICAL CO., LTD., priority 2019, published 2022)

What was measured:
[1] = test system: Salmonella TA98, TA100, TA1535, TA1537 and Escherichia coli; assay: Reverse mutation test (Ames test); parameters: species or system Salmonella typhimurium; details: non-metabolic activation conditions and activation conditions (-S9/+S9)
Method: Salmonella TA98, TA100, TA1535, TA1537 and Escherichia coli were used as test strains (strain source: Molecular Toxicology, Inc.). Ames test was performed under non-metabolic activation conditions and activation conditions to investigate whether the compounds according to the present invention have gene mutation inducing properties.
The cryopreserved strains were resuscitated, inoculated into nutrient broth medium and cultured in a 37° C. constant temperature shaker at 100 to 120 rpm for 11 h. The bottom agar medium (containing an appropriate amount of agar, V-B buffer, 20% glucose solution, 20% magnesium sulfate solution) was poured into a dish to cool for later use. […] The cultured plate was removed, counted and compared with the DMSO group for evaluation. If the average number of reverted colonies is twice or more than the number of reverted colonies in the negative control group (which can be regarded as spontaneous reverted number) (TA1535: 3 times or more) and there is a dose-effect relationship, the result is positive, and the test sample can be determined to be a mutagenic agent. […]

Method for Body weight of CIA rats: Lewis rats (female, 10-12 weeks old) were obtained from Beijing Vital River Laboratory Animal Technology Co., Ltd. The rats were on a light and dark alternation for 12 h, and the environment was kept at a temperature of 23±2° C. and a humidity of 40-70%.
Type II collagen solution (2 mg/mL) was prepared with 0.05 M acetic acid solution to allow to be fully dissolved, and placed overnight in the dark at 4° C. During the test, 2 mg/mL type II collagen (C II) solution and 4 mg/mL complete Freund's adjuvant (CFA) solution were mixed in equal volumes under ice bath conditions to fully emulsify. On day 0, an emulsion prepared by mixing equal volumes of C II (2 mg/mL) and CFA (4 mg/mL) was injected intracutaneously into the base of the tail of experimental rats for primary immunization, and on day 7, secondary booster immunization was performed.
The therapeutic effect of the test compound was tested in a rat CIA model. The rats were randomly divided into groups with 8 animals in each group. All animals were immunized on day 0 and boosted on day 7.
Therefore, the differences in body weight and foot volume after the onset of arthritis compared with the negative group, respectively, can be used to evaluate the therapeutic effect in the rat model. The experimental data were expressed as Mean±SEM; the data between the two groups was tested by unpaired t-test and p<0.05 was considered as a significant difference.

**Q.** For `O=C(Nc1cn2c(-c3ccc(CN4CCS(=O)(=O)CC4)s3)cccc2n1)[C@H]1C[C@@H]1F` (relative stereo) [EXP-3, trans-N-[5-[5-[(1,1-dioxo-1,4-thiazin-4-yl)methyl]-2-thiophene]imidazo[1,2-a]pyridin-2-yl]-2-fluoro-cyclopropylcarboxamide], which Ames test result [1] is on record?
**A.** negative

**Q.** What about the “Body weight (g)/Day” value (Body weight of CIA rats; 2 mg/kg oral gavage once daily for 2 w, day 0) of the same molecule?
**A.** 172.3 ± 1.9 g

**Q.** And the “Body weight (g)/Day” value (Body weight of CIA rats; 2 mg/kg oral gavage once daily for 2 w, day 8)?
**A.** 172.6 ± 0.7 g

**Q.** And the “Body weight (g)/Day” value (Body weight of CIA rats; 2 mg/kg oral gavage once daily for 2 w, day 11)?
**A.** 172.3 ± 1.8 g

**Q.** What about the “Body weight (g)/Day” value (Body weight of CIA rats; 2 mg/kg oral gavage once daily for 2 w, day 14) of the same molecule?
**A.** 170.3 ± 1 g

**Q.** What about the “Body weight (g)/Day” value (Body weight of CIA rats; 2 mg/kg oral gavage once daily for 2 w, day 17) of the same molecule?
**A.** 169.1 ± 1.2 g

**Q.** And the “Body weight (g)/Day” value (Body weight of CIA rats; 2 mg/kg oral gavage once daily for 2 w, day 21)?
**A.** 164.9 ± 1.8 g

**Q.** And the “Body weight (g)/Day” value (Body weight of CIA rats; 2 mg/kg oral gavage once daily for 2 w, day 24)?
**A.** 166.4 ± 2.6 g

**Q.** What about the “Body weight (g)/Day” value (Body weight of CIA rats; 2 mg/kg oral gavage once daily for 2 w, day 28) of the same molecule?
**A.** 166.9 ± 2.7 g

**Q.** What about the “Body weight (g)/Day” value (Body weight of CIA rats; 3 mg/kg oral gavage once daily for 2 w, day 0) of the same molecule?
**A.** 174.5 ± 1.3 g

**Q.** What about the “Body weight (g)/Day” value (Body weight of CIA rats; 3 mg/kg oral gavage once daily for 2 w, day 8) of the same molecule?
**A.** 172.4 ± 2.7 g

**Q.** What about the “Body weight (g)/Day” value (Body weight of CIA rats; 3 mg/kg oral gavage once daily for 2 w, day 11) of the same molecule?
**A.** 170.8 ± 3.8 g

**Q.** What about the “Body weight (g)/Day” value (Body weight of CIA rats; 3 mg/kg oral gavage once daily for 2 w, day 14) of the same molecule?
**A.** 171.6 ± 2.9 g

**Q.** And the “Body weight (g)/Day” value (Body weight of CIA rats; 3 mg/kg oral gavage once daily for 2 w, day 17)?
**A.** 170.1 ± 2.7 g

**Q.** And the “Body weight (g)/Day” value (Body weight of CIA rats; 3 mg/kg oral gavage once daily for 2 w, day 21)?
**A.** 166.8 ± 1.8 g

**Q.** And the “Body weight (g)/Day” value (Body weight of CIA rats; 3 mg/kg oral gavage once daily for 2 w, day 24)?
**A.** 165 ± 1.8 g

**Q.** What about the “Body weight (g)/Day” value (Body weight of CIA rats; 3 mg/kg oral gavage once daily for 2 w, day 28) of the same molecule?
**A.** 169.3 ± 2 g

**Q.** What about the “Body weight (g)/Day” value (Body weight of CIA rats; 5 mg/kg oral gavage once daily for 2 w, day 0) of the same molecule?
**A.** 171.8 ± 2.3 g

**Q.** What about the “Body weight (g)/Day” value (Body weight of CIA rats; 5 mg/kg oral gavage once daily for 2 w, day 8) of the same molecule?
**A.** 171.1 ± 3.1 g

**Q.** What about the “Body weight (g)/Day” value (Body weight of CIA rats; 5 mg/kg oral gavage once daily for 2 w, day 11) of the same molecule?
**A.** 170.9 ± 4.5 g

**Q.** What about the “Body weight (g)/Day” value (Body weight of CIA rats; 5 mg/kg oral gavage once daily for 2 w, day 14) of the same molecule?
**A.** 171.4 ± 2.4 g

**Q.** What about the “Body weight (g)/Day” value (Body weight of CIA rats; 5 mg/kg oral gavage once daily for 2 w, day 17) of the same molecule?
**A.** 172.8 ± 2.2 g

**Q.** And the “Body weight (g)/Day” value (Body weight of CIA rats; 5 mg/kg oral gavage once daily for 2 w, day 21)?
**A.** 166.5 ± 1.9 g

**Q.** And the “Body weight (g)/Day” value (Body weight of CIA rats; 5 mg/kg oral gavage once daily for 2 w, day 24)?
**A.** 165.3 ± 1.7 g

**Q.** And the “Body weight (g)/Day” value (Body weight of CIA rats; 5 mg/kg oral gavage once daily for 2 w, day 28)?
**A.** 169.1 ± 2.1 g

**Q.** What about the “body weight course, in words” value (Body weight of CIA rats; 10 mg/kg) of the same molecule?
**A.** increased slightly on days 11-17, but then fell back

**Q.** And the “Body weight (g)/Day” value (Body weight of CIA rats; 10 mg/kg oral gavage once daily for 2 w, day 0)?
**A.** 173.9 ± 1.8 g

**Q.** And the “Body weight (g)/Day” value (Body weight of CIA rats; 10 mg/kg oral gavage once daily for 2 w, day 8)?
**A.** 175.3 ± 2.1 g

**Q.** What about the “Body weight (g)/Day” value (Body weight of CIA rats; 10 mg/kg oral gavage once daily for 2 w, day 11) of the same molecule?
**A.** 175.9 ± 2.8 g

**Q.** And the “Body weight (g)/Day” value (Body weight of CIA rats; 10 mg/kg oral gavage once daily for 2 w, day 14)?
**A.** 175.3 ± 2.2 g

**Q.** And the “Body weight (g)/Day” value (Body weight of CIA rats; 10 mg/kg oral gavage once daily for 2 w, day 17)?
**A.** 176.4 ± 3.3 g

**Q.** What about the “Body weight (g)/Day” value (Body weight of CIA rats; 10 mg/kg oral gavage once daily for 2 w, day 21) of the same molecule?
**A.** 171.8 ± 2.9 g

**Q.** What about the “Body weight (g)/Day” value (Body weight of CIA rats; 10 mg/kg oral gavage once daily for 2 w, day 24) of the same molecule?
**A.** 166.3 ± 2.9 g

**Q.** What about the “Body weight (g)/Day” value (Body weight of CIA rats; 10 mg/kg oral gavage once daily for 2 w, day 28) of the same molecule?
**A.** 170.4 ± 3.1 g
